Assay results as given in patent US7173004B2, “Macrocyclic isoquinoline peptide inhibitors of hepatitis C virus” (Bristol-Myers Squibb Company, priority 2003, dated 2007).

Columns and labels:
[1] = tested on: human pancreatic chymotrypsin; experiment: Specificity assay, chymotrypsin; assay type: biochemical; settings: read-out: Chymotrypsin activity in the specificity assays (IC50)
Protocol: The specificities of compounds of the present invention were determined against a variety of serine proteases: human neutrophil elastase (HNE), porcine pancreatic elastase (PPE) and human pancreatic chymotrypsin and one cysteine protease: human liver cathepsin B. In all cases a 96-well plate format protocol using calorimetric p-nitroaniline (pNA) substrate specific for each enzyme was used as described previously (PCT Patent Application No. WO 00/09543) with some modifications to the serine protease assays. All enzymes were purchased from Sigma while the substrates were from Bachem.
Each assay included a 2 hr enzyme-inhibitor pre-incubation at room temperature followed by addition of substrate and hydrolysis to ˜30% conversion as measured on a Spectramax Pro microplate reader. Compound concentrations varied from 100 to 0.4 micromolar (“μM”) depending on their potency. […]
The percentage of inhibition was calculated using the formula: [1−((UVinh−UVblank)/(UVctl−UVblank))]×100 […]

[2] = target: T1, HCV NS3/4A protease complex, H77C strain (1a genotype) (Hepatitis C virus genotype 1a, UniProt P27958, C1454S); experiment: Recombinant HCV NS3/4A protease complex FRET peptide assay, H77C strain; assay type: biochemical
T1 construct: DNA encoding the recombinant HCV NS3/4A protease complex (amino acids 1027 to 1711) for these strains; His tag (inferred from Ni-NTA purification and pET21b vector); made in house; host or cells: Escherichia coli BL21 (DE3)
T1 sequence (P27958 1027-1657 C1454S): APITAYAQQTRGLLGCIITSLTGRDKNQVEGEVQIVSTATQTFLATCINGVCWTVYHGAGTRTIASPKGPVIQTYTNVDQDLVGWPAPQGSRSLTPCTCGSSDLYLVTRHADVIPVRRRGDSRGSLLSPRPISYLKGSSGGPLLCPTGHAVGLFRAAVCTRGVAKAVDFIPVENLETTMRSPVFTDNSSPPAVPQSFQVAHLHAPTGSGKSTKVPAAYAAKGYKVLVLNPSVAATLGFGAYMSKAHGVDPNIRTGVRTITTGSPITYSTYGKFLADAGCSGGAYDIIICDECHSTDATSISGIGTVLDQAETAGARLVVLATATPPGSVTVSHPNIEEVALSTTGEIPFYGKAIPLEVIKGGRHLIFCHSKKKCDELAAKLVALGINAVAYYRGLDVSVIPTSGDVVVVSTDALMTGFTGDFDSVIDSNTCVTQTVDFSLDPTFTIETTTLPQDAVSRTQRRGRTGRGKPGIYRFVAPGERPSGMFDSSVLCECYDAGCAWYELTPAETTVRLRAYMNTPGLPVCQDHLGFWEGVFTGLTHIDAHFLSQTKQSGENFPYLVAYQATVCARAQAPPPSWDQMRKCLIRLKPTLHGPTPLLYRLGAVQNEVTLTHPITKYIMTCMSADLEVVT
T1 sequence (P27958 1658-1714 partner, looked up, stated change not applied): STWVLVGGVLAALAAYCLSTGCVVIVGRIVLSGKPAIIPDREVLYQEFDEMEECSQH
Source text: Recombinant HCV NS3/4A Protease Complex FRET Peptide Assay
The purpose of this in vitro assay was to measure the inhibition of HCV NS3 protease complexes, derived from the BMS strain, H77C strain or J416S strain, as described below, by compounds of the present invention. This assay provides an indication of how effective compounds of the present invention would be in inhibiting HCV proteolytic activity.
Serum from an HCV-infected patient was obtained from Dr. T. Wright, San Francisco Hospital. An engineered full-length cDNA (compliment deoxyribonucleic acid) template of the HCV genome (BMS strain) was constructed from DNA fragments obtained by reverse transcription-PCR (RT-PCR) of serum RNA (ribonucleic acid) and using primers selected on the basis of homology between other genotype 1a strains. From the determination of the entire genome sequence, a genotype 1a was assigned to the HCV isolate according to the classification of Simmonds et al. (See P Simmonds, K A Rose, S Graham, S W Chan, F McOmish, B C Dow, E A Follett, P L Yap and H Marsden, J. Clin. Microbiol., 31(6), 1493–1503 (1993)). […]

SMILES: CC(C)(C)OC(=O)N[C@H]1CCCCC/C=C\[C@@H]2C[C@@]2(C(=O)NS(C)(=O)=O)NC(=O)[C@@H]2C[C@@H](Oc3nccc4ccccc34)CN2C1=O [Compound 2, [18-(Isoquinolin-1-yloxy)-4-methanesulfonylaminocarbonyl-2,15-dioxo-3,16-diaza-tricyclo[14.3.0.0^4,6]nonadec-7-en-14-yl]-carbamic acid tert-butyl ester]
- IC50 [1]: > 100 µM
- IC50 [2]: 4.2 nM
